SMILES	melting point
CC(C)c1[nH]n(-c2c(Cl)cccc2Cl)c2nc(Cc3ccc(CC(=O)NCCN(C)C)cc3)nc(=O)c1-2 [Example 124, 1-(2,6-Dichlorophenyl)-3-isopropyl-6-(4-(2-(N,N-dimethylamino)ethylaminocarbonylmethyl)benzyl)pyrazolo[3,4-d]pyrimidin-4-one]	170 to 172 °C
CCc1nn(-c2c(Cl)cc(Cl)cc2Cl)c2nc(Cc3cccc(CC(=O)O)c3)[nH]c(=O)c12 [Example 47]	192 to 194 °C
CNc1ccc(Cc2nc3c(c(C(C)C)nn3-c3c(Cl)cc(Cl)cc3Cl)c(=O)[nH]2)cc1 [Example 67]	244 to 246 °C
CCc1nn(-c2c(Cl)cc(C(=O)NC)cc2Cl)c2nc(Cc3ccc(OC)cc3)[nH]c(=O)c12 [Example 201]	278 to 280 °C
COc1cccc(Cc2nc3c(c(SC)nn3-c3c(F)cccc3Cl)c(=O)[nH]2)c1 [Example 182]	244 to 245 °C
CCc1nn(-c2c(Cl)cc(C(=O)O)cc2Cl)c2nc(Cc3ccc(N)cc3)[nH]c(=O)c12 [Example 205]	226 to 228 °C
CSc1nn(-c2c(C)cccc2Cl)c2nc(Cc3ccc(O)cc3)[nH]c(=O)c12 [Example 190]	264 to 266 °C
CC(C)c1[nH]n(-c2c(Cl)cc(Cl)cc2Cl)c2nc(Cc3ccc(N(C(=O)OC(C)(C)C)C(=O)[C@@H]4CCCN4)cc3)nc(=O)c1-2 [Example 113, (S)-1-(2,4,6-Trichlorophenyl)-3-isopropyl-6-(4-(N-t-butoxycarbonylprolinamido)benzyl)pyrazolo[3,4-d]pyrimidin-4-one]	225 to 226 °C
COc1ccc(Cc2nc3c(c(SC)nn3-c3c(Cl)cc(Cl)cc3Cl)c(=O)[nH]2)cc1 [Example 8]	263 to 267 °C
CCc1nn(-c2c(Cl)cccc2Cl)c2nc(Cc3ccc(OC)cc3)[nH]c(=O)c12 [Example 176]	220 to 222 °C
COc1ccc(Cc2nc3c(c(SC)nn3-c3ccccc3Cl)c(=O)[nH]2)cc1 [Example 150]	227 to 228 °C
CSc1nn(-c2c(Cl)cc(Br)cc2Cl)c2nc(Cc3ccc(O)cc3)[nH]c(=O)c12 [Example 180]	255 to 256 °C
CSc1nn(-c2c(Cl)cc(Cl)cc2Cl)c2nc(Cc3ccncc3)[nH]c(=O)c12 [Example 5]	283 to 287 °C
Cc1ccccc1Cc1nc2c(c(C(C)C)nn2-c2c(Cl)cc(Cl)cc2Cl)c(=O)[nH]1 [Example 63]	194 to 195 °C
O=c1[nH]c(Cc2ccc3[nH]ncc3c2)nc2c1c(C1CC1)nn2-c1c(Cl)cc(Cl)cc1Cl [Example 72]	274 to 283 °C
CC(C)c1nn(-c2c(Cl)cc(Cl)cc2Cl)c2nc(Cc3ccc(N)c(O)c3)[nH]c(=O)c12 [Example 55]	210 to 217 °C (dec.)
CCc1nn(-c2c(Cl)cc(Br)cc2Cl)c2nc(Cc3cccc(O)c3)[nH]c(=O)c12 [Example 170]	242 to 244 °C
CCc1nn(-c2c(Cl)cc(Cl)cc2Cl)c2nc(Cc3c[nH]c4ccc(OC)cc34)[nH]c(=O)c12 [Example 40]	295 to 298 °C
CCc1nn(-c2c(C)cccc2Cl)c2nc(Cc3cccc(OC)c3)[nH]c(=O)c12 [Example 193]	188 to 190 °C
CCc1nn(-c2c(Cl)cc(C(F)(F)F)cc2Cl)c2nc(Cc3cccc(OC)c3)[nH]c(=O)c12 [Example 166]	192 to 193 °C
CCc1nn(-c2c(C)cccc2Cl)c2nc(Cc3ccc(O)cc3)[nH]c(=O)c12 [Example 192]	257 to 259 °C
